In patent US8691855B2, “Compounds, isomer thereof, or pharmaceutically acceptable salts thereof as vanilloid receptor antagonist and pharmaceutical compositions containing the same” (Amorepacific Corporation, priority 2008, dated 2014):

Biological target: T1, vanilloid receptor (Rattus norvegicus, UniProt O35433)
T1 construct: DRG nerve cells from the primary culture of 2 days were equilibrated; endogenous in cells; host or cells: primary culture of dorsal root ganglion neurons from neonatal SD rats
T1 sequence (O35433 whole entry): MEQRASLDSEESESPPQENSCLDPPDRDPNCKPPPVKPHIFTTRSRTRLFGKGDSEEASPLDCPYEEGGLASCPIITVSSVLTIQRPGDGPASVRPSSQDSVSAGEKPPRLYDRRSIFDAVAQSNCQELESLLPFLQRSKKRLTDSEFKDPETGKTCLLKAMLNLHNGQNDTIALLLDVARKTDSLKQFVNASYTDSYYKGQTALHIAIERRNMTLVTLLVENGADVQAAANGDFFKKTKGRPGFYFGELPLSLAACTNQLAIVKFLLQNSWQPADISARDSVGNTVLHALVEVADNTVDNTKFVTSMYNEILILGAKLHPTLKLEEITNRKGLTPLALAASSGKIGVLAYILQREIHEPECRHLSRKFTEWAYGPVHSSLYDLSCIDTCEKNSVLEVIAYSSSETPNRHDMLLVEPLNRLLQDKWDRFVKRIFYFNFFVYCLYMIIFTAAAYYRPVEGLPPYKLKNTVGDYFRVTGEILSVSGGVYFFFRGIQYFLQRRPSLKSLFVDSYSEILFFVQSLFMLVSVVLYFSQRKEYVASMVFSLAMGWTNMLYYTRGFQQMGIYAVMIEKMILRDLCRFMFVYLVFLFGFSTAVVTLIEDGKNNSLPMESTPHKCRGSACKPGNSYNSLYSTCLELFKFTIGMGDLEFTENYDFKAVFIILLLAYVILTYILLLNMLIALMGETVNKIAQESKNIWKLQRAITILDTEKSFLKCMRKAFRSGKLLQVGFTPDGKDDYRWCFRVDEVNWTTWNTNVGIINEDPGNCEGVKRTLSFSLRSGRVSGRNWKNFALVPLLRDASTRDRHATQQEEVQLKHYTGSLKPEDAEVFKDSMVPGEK
Test: 45Ca influx test (antagonist calcium uptake test) in rat DRG neurons stimulated with capsaicin
Type: cell-based
Conditions: DRG neuron; @1 μM; neonatal SD rat DRG neurons; capsaicin 0.5 μM; read-out: Antagonist Calcium Uptake Test, percent inhibition of capsaicin response
Method: 1) Separation of spinal dorsal root ganglia (DRG) in newborn rats and primary culture thereof
Neonatal (2-3 clay old or younger than 2-3 day old) SD rats were put in ice for 5 minutes to anesthetize and disinfected with 70% ethanol. DRG of all part of spinal cord were dissected (Wood et al., 1988, J. Neurosci. 8, pp 3208-3220) and collected in DME/F12 medium to which 1.2 g/l sodium bicarbonate and 50 mg/l gentamycin were added. The DRG were incubated sequentially at 37° C. for 30 mins in 200 U/ml collagenase and 2.5 mg/ml trypsin, separately. The ganglia were washed twice with DME/F12 medium supplemented with 10% horse serum, triturated through a fire-polished Pasteur pipette, filtered through Nitex 80 membrane to obtain single cell suspension and the suspension was washed once more. This was subjected to centrifugation, then resuspended in cell culture medium at certain level of cell density. As the cell culture medium, DME/F12 medium supplemented with 10% horse serum was diluted with identical medium conditioned by C6 glioma cells 2 clays on a confluent monolayer (1:1), and NGF (Nerve Growth Factor) was added to adjust 200 ng/ml as final concentration. After the cells were grown 2 days in medium where cytosine arabinoside (Ara-C, 100 μM) was added to kill dividing nonneuronal cells, medium was changed to one without Ara-C. The resuspended cells were plated at a density of 1500-2000 neurons/well onto Terasaki plates previously coated with 10 μg/ml poly-D-ornithine.
2) ^45Ca Influx Experiments
DRG nerve cells from the primary culture of 2 days were equilibrated by washing 4 times with HEPES (10 mM, pH 7.4)-buffered Ca^2+, Mg^2+-free HBSS (H-HBSS). The solution in each well was removed from the individual well. Medium containing the test compound plus capsaicin (final concentration 0.5 μM) and ^45Ca (final concentration 10 μCi/ml) in H-HBSS was added to each well and incubated at room temperature for 10 nuns. Terasaki plates were washed five times with H-HBSS and dried at room temperature. To each well, 0.3% SDS (10 μl) was added to elute ^45Ca. After the addition of scintillation cocktail of into each well, the amount of ^45Ca influx into neuron was measured by counting radioactivity. Antagonistic activities of test compounds against vanilloid receptor were calculated as percent of the inhibition of maximal response of capsaicin at a concentration of 0.5 μM.

Row | inhibition at 1 µM [%] | Structure (SMILES)
1 | 74 | C[C@@H](NC(=O)c1coc(Oc2cccc3c2CCCC3)n1)c1cc(F)c(NS(C)(=O)=O)c(F)c1 (stereo in doubt) [Example 55, 2-(5,6,7,8-Tetrahydro-naphthalen-1-yloxy)-oxazole-4-carboxylic acid [1-(3,5-difluoro-4-methanesulfonylamino-phenyl)-ethyl]-amide]

Same assay, conditions: DRG neuron; @10 μM; neonatal SD rat DRG neurons; capsaicin 0.5 μM; read-out: Antagonist Calcium Uptake Test, percent inhibition of capsaicin response

Row | inhibition at 10 µM [%] | Structure (SMILES)
2 | 67 | C[C@@H](NC(=O)c1csc(Cc2cccc(C(F)(F)F)c2)n1)c1cc(F)c(NS(C)(=O)=O)c(F)c1 (stereo in doubt) [Example 20, 2-(3-Trifluoromethyl-benzyl)-thiazole-4-carboxylic acid [1-(3,5-difluoro-4-methanesulfonylamino-phenyl)-ethyl]-amide]

Same assay, conditions: neonatal SD rat DRG neurons; capsaicin 0.5 μM; 45Ca

Row | IC50 [µM] | Structure (SMILES)
3 | 0.4 | C[C@@H](NC(=O)c1coc(Oc2cccc3c2OC(C)(C)C3)n1)c1cc(F)c(NS(C)(=O)=O)c(F)c1 (stereo in doubt) [Example 34, 2-(2,2-Dimethyl-2,3-dihydro-benzofuran-7-yloxy)-oxazole-4-carboxylic acid [1-(3,5-difluoro-4-methanesulfonylamino-phenyl)-ethyl]-amide]
4 | 0.33 | C[C@@H](NC(=O)c1coc(Oc2cccc3c2CCC3C(F)(F)F)n1)c1cc(F)c(NS(C)(=O)=O)c(F)c1 (stereo in doubt) [Example 57, 2-(1-Trifluoromethyl-indan-4-yloxy)-oxazole-4-carboxylic acid [1-(3,5-difluoro-4-methanesulfonylamino-phenyl)-ethyl]-amide]
5 | 1.7 | COc1cccc(-c2nc(C(=O)N[C@H](C)c3cc(F)c(NS(C)(=O)=O)c(F)c3)co2)c1 (stereo in doubt) [Example 68, 2-(3-Methoxy-phenyl)-oxazole-4-carboxylic acid [1-(3,5-difluoro-4-methanesulfonylamino-phenyl)-ethyl]-amide]
6 | 10.5 | C[C@@H](NC(=O)c1ccc(-c2cccc(C(F)(F)F)c2)s1)c1cc(F)c(NS(C)(=O)=O)c(F)c1 (stereo in doubt) [Example 73, 5-(3-Trifluoromethyl-phenyl)-thiophene-2-carboxylic acid [1-(3,5-difluoro-4-methanesulfonylamino-phenyl)-ethyl]-amide]
7 | 0.99 | C[C@@H](NC(=O)c1coc(-c2cccc(C(F)(F)F)c2F)n1)c1cc(F)c(NS(C)(=O)=O)c(F)c1 (stereo in doubt) [Example 79, 2-(2-Fluoro-3-trifluoromethyl-phenyl)-oxazole-4-carboxylic acid [1-(3,5-difluoro-4-methanesulfonylamino-phenyl)-ethyl]-amide]
8 | 7.4 | C[C@@H](NC(=O)c1coc(-c2ccccc2Cl)n1)c1cc(F)c(NS(C)(=O)=O)c(F)c1 (stereo in doubt) [Example 84, 2-(2-Chloro-phenyl)-oxazole-4-carboxylic acid [1-(3,5-difluoro-4-methanesulfonylamino-phenyl)-ethyl]-amide]
9 | 1.3 | COc1ccc(-c2nc(C(=O)N[C@H](C)c3cc(F)c(NS(C)(=O)=O)c(F)c3)co2)cc1C(F)(F)F (stereo in doubt) [Example 96, 2-(4-Methoxy-3-trifluoromethyl-phenyl)-oxazole-4-carboxylic acid [1-(3,5-difluoro-4-methanesulfonylamino-phenyl)-ethyl]-amide]
10 | 3 | C[C@@H](NC(=O)c1csc(-c2cc(C3CC3)cc(C3CC3)c2)n1)c1cc(F)c(NS(C)(=O)=O)c(F)c1 (stereo in doubt) [Example 107, 2-(3,5-Dicyclopropyl-phenyl)-thiazole-4-carboxylic acid [1-(3,5-difluoro-4-methanesulfonylamino-phenyl)-ethyl]-amide]
11 | 0.49 | CC(C)c1ccccc1Oc1nc(C(=O)N[C@H](C)c2cc(F)c(NS(C)(=O)=O)c(F)c2)co1 [Example 3, 2-(2-Isopropyl-phenoxy)-oxazole-4-carboxylic acid [1-(3,5-difluoro-4-methanesulfonylamino-phenyl)-ethyl]-amide]
12 | 3.6 | CC(C)c1ccc(Oc2nc(C(=O)N[C@H](C)c3cc(F)c(NS(C)(=O)=O)c(F)c3)co2)cc1 [Example 5, 2-(4-Isopropyl-phenoxy)-oxazole-4-carboxylic acid [1-(3,5-difluoro-4-methanesulfonylamino-phenyl)-ethyl]-amide]
13 | 5 | C[C@@H](NC(=O)c1coc(Oc2ccc(C(F)(F)F)cc2)n1)c1cc(F)c(NS(C)(=O)=O)c(F)c1 [Example 6, 2-(4-Trifluoromethyl-phenoxy)-oxazole-4-carboxylic acid [1-(3,5-difluoro-4-methanesulfonylamino-phenyl)-ethyl]-amide]
14 | 4.3 | C[C@@H](NC(=O)c1coc(Oc2ccc(C(C)(C)C)cc2)n1)c1cc(F)c(NS(C)(=O)=O)c(F)c1 [Example 7, 2-(4-tert-Butyl-phenoxy)-oxazole-4-carboxylic acid [1-(3,5-difluoro-4-methanesulfonylamino-phenyl)-ethyl]-amide]
15 | 2.7 | CCN(CC)c1cccc(Oc2nc(C(=O)N[C@H](C)c3cc(F)c(NS(C)(=O)=O)c(F)c3)co2)c1 [Example 8, 2-(3-Diethylamino-phenoxy)-oxazole-4-carboxylic acid [1-(3,5-difluoro-4-methanesulfonylamino-phenyl)-ethyl]-amide]
16 | 0.44 | CC(C)c1cccc(Oc2nc(C(=O)NCc3cc(F)c(NS(C)(=O)=O)c(F)c3)co2)c1 [Example 9, 2-(3-Isopropyl-phenoxy)-oxazole-4-carboxylic acid 3,5-difluoro-4-methanesulfonylamino-benzylamide]
17 | 6.4 | C[C@@H](NC(=O)c1csc(Cc2ccc(C(C)(C)C)cc2)n1)c1cc(F)c(NS(C)(=O)=O)c(F)c1 [Example 10, (R)—N-[1-(3,5-Difluoro-4-methanesulfonylamino-phenyl)-ethyl]-2-(4-t-butylbenzyl)-thiazole-4-amide]
18 | > 10 | C[C@@H](NC(=O)c1csc(Cc2ccc(F)c(F)c2)n1)c1cc(F)c(NS(C)(=O)=O)c(F)c1 [Example 11, (R)—N-[1-(3,5-Difluoro-4-methanesulfonylamino-phenyl)-ethyl]-2-(3,4-difluorobenzyl)-thiazole-4-amide]
19 | > 10 | CS(=O)(=O)Nc1c(F)cc(CNC(=O)c2csc(Cc3ccc(F)c(F)c3)n2)cc1F [Example 12, N-[1-(3,5-Difluoro-4-methanesulfonylamino)-benzyl]-2-(3,4-difluorobenzyl)-thiazole-4-amide]
20 | 1.4 | C[C@@H](NC(=O)c1coc(NCC2CCCCC2)n1)c1cc(F)c(NS(C)(=O)=O)c(F)c1 [Example 13, 2-(Cyclohexylmethyl-amino)-oxazole-4-carboxylic acid [1-(3,5-difluoro-4-methanesulfonylamino-phenyl)-ethyl]-amide]
21 | 1.5 | CS(=O)(=O)Nc1c(F)cc(CNC(=O)c2csc(Oc3ccc(C(F)(F)F)cc3)n2)cc1F [Example 14, 2-(4-Trifluoromethyl-phenoxy)-thiazole-4-carboxylic acid 3,5-difluoro-4-methanesulfonylamino-benzylamide]
22 | 0.6 | C[C@@H](NC(=O)c1coc(Oc2cccc(Br)c2)n1)c1cc(F)c(NS(C)(=O)=O)c(F)c1 [Example 15, 2-(3-Bromo-phenoxy)-oxazole-4-carboxylic acid [1-(3,5-difluoro-4-methanesulfonylamino-phenyl)-ethyl]-amide]
23 | 0.77 | C[C@@H](NC(=O)c1coc(Oc2cccc(Cl)c2)n1)c1cc(F)c(NS(C)(=O)=O)c(F)c1 [Example 16, 2-(3-Chloro-phenoxy)-oxazole-4-carboxylic acid [1-(3,5-difluoro-4-methanesulfonylamino-phenyl)-ethyl]-amide]
24 | > 10 | C[C@@H](NC(=O)c1coc(Oc2cccc(C#N)c2)n1)c1cc(F)c(NS(C)(=O)=O)c(F)c1 [Example 17, 2-(3-Cyano-phenoxy)-oxazole-4-carboxylic acid [1-(3,5-difluoro-4-methanesulfonylamino-phenyl)-ethyl]-amide]
25 | 2.9 | C[C@@H](NC(=O)c1coc(Oc2cccc([N+](=O)[O-])c2)n1)c1cc(F)c(NS(C)(=O)=O)c(F)c1 [Example 18, 2-(3-Nitro-phenoxy)-oxazole-4-carboxylic acid [1-(3,5-difluoro-4-methanesulfonylamino-phenyl)-ethyl]-amide]
